According to article PMC8854749, “Celastrol Inhibits Canine Mammary Tumor Cells by Inducing Apoptosis via the Caspase Pathway” (Frontiers in Veterinary Science, 2022):
Peptide text beside a SMILES is read from it. * marks the point of attachment. Cbz = O=C(OCc1ccccc1)*; CH2F = FC*

How the values were obtained:
Test in all cases: Western blot of apoptosis- and cell cycle-related proteins
Format in all cases: cell-based, canine
CIPp cells [1] = conditions: inhibitor with celastrol, 24 h, vs celastrol alone
Protocol: (§1) The CMT-7364 and CIPp cells were treated with different concentrations of Caspase inhibitor Z-V-F and/or celastrol for 24 h, and the cells were lysed with RIPA lysis buffer on ice. The protein was extracted according to the manufacturer's instructions, and protein concentration was determined by the BCA protein concentration assay kit. The loading amount of 20 μg protein in each group was separated by 10% SDS-PAGE, the separated protein was transferred to polyvinylidene fluoride membrane. After blocking with 5% skimmed milk for 1 h, the membrane was washed two times with 0.5% PBS-Tween 20 (PBS-T), then the membrane with the primary antibody was incubated overnight in a shaker at 4°C. Primary antibodies include β-actin (1:2,000), p65 (1:1,000), NF-κB (1:1,000), Caspase-9 (1:1,000), Caspase-3 (1:1,000), Bax (1:2,000), Bcl-2 (1:1,000), Cyclin D1 (1:1,000), p21 (1:1,000), and p27 (1:1,000). After washing 3 times with PBS-T buffer for 10 min each time, the membrane was incubated with HRP-conjugated secondary antibody at 37°C for 30 min. Secondary antibodies include anti-mouse IgG antibody (1:5,000), anti-rabbit IgG antibody (1:2,000~1:4,000). The membrane was washed 3 times with PBS-T for 10 min each time. Finally, it was detected by an enhanced chemiluminescence detection system, and the results were quantified by ImageJ.

CMT-7364 cells [2] = conditions: inhibitor with celastrol, 24 h, vs celastrol alone
Protocol: as §1

CMT-7364 cells [3] = conditions: inhibitor with 0.9 μM celastrol, 24 h
CIPp cells [4] = conditions: inhibitor with 0.9 μM celastrol, 24 h

**Q.** Which “expression of anti-apoptotic protein Bcl-2” value (CIPp cells [1]) does the source give for COC(=O)C[C@H](NC(=O)[C@H](C)NC(=O)[C@@H](NC(=O)OCc1ccccc1)C(C)C)C(=O)CF [Z-V-F, Z-VAD-FMK] (Cbz-Val-Ala-Asp(OMe)-CH2F) here?
**A.** increased

**Q.** And the “expression of pro-apoptotic protein Bax induced by celastrol” value (CIPp cells [1])?
**A.** decreased

**Q.** What about the “expression of anti-apoptotic protein Bcl-2” value (CMT-7364 cells [2]) of the same compound?
**A.** increased

**Q.** And the “expression of pro-apoptotic protein Bax induced by celastrol” value (CMT-7364 cells [2])?
**A.** decreased

**Q.** And the “effect on 0.9 μM celastrol-induced apoptosis” value (CMT-7364 cells [3])?
**A.** block

**Q.** And the “effect on 0.9 μM celastrol-induced apoptosis” value (CIPp cells [4])?
**A.** block
